From patent publication US20090239944A1, “Novel Use of Organic Compounds” (priority 2005, published 2009)

Tests used:
C3H10T1/2 cells [1] = experiment: Differentiation of adipocytes (oil Red O staining, absorbance at 540 nm); assay type: cell-based; conditions: for Differentiation of the cells into adipocytes (result in words): co-treatment with insulin, compared with insulin alone; for Mean OD ± SEM (oil Red O, 540 nm): 10-day treatment
Procedure: C3H10T1/2 cells were grown to confluence as described in Example 1, then treated for 10 days with insulin alone (negative control) or with a mixture of insulin and the compound of the formula I-1 at different concentrations (see Table 2), with re-feeding with fresh medium and compounds every 48-h. After 10-days of treatment, the cells were stained with oil Red O as follows: cells were washed 2× in PBS and fixed in 10% formalin at room temperature for 1 h. After removal of formalin, 200 μl of oil Red O staining solution (3:2 mixture of 0.5% w/v oil Red O stock solution and water) was applied to each well. The cells were incubated for 20 min at room temperature, washed twice in 2×PBS and incubated for 10 min with 300 μl of isopropanol/well for oil Red O extraction. Quantification of oil Red O was determined by measuring absorbance at 540 nm (mean OD). […] C3H10T1/2 cells were grown and treated as described in Example 4 with the exception that the compound of the formula I-2 was used instead of the compound of the formula I-1. The measurement of adipocyte differentiation using the oil Red O assay was performed as described in Example 4. […] C3H10T1/2 cells were grown and treated as described in Example 4 with the exception that the compound of the formula I-3 was used instead of the compound of the formula I-1. The measurement of adipocyte differentiation using the oil Red O assay was performed as described in Example 4.

C3H10T1/2 cells [2] = experiment: Glucose uptake of adipocytes (radioactive 2-deoxyglucose, basal, absence of insulin); assay type: cell-based; conditions: 48-h treatment; for Basal glucose uptake: absence of insulin, ± SEM, DMSO control = 100%; for Basal glucose uptake (result in words): different concentrations
Procedure: C3H10T1/2 cells (ATCC CCL-226) were grown for 5 days to confluence in DMEM supplemented with 10% FBS medium and induced with a mixture of insulin, dexamethasone and 3-isobutyl-1-methylxanthine to differentiate into adipocytes. Nine days after the beginning of induction, cells were treated for 48-h with the compound of the formula I-1 at different concentrations as shown in Table 1. Glucose uptake was determined using radioactive 2-deoxyglucose (10 μM 2-DG in HBS+0.5 μCi/ml of 3-[H]-2-DG), measuring glucose uptake in the absence of insulin. Basal glucose uptake was increased by 48-h treatment with the compound of the formula I-1 in a dose-dependent manner (Table 1). Growing, induction and treatment of C3H10T1/2 cells were exactly as described in Example 1, with the exception that the compound of the formula I-3 at different concentrations was used instead of the compound of the formula I-1. […] Control: C3H10T1/2 cells treated for 48 h with DMSO at the same concentration as compound-treated cells and set at 100%

C57BLKS/J db/db mice = experiment: Glucose tolerance, 14-day study in db/db mice (blood glucose, OGTT, FFA); assay type: in vivo
Procedure: The efficacy of the compound of the formula I-1 on glucose tolerance was tested in a 14-day study in C57BLKS/J db/db mice (n=10/group), a model of late type 2 diabetes mellitus with severe hyperglycemia.
Male db/db mice were obtained from Jackson Laboratory (Bar Harbor, Me., USA). Adult mice aged 8 weeks were used in the experiment. Mice were housed individually in plastic cages with bedding and allowed free access to standard rodent food and tap water. The animal rooms were controlled for temperature (24° C.), humidity (55%), and light (12-h light-dark cycle). The animals were randomized in two groups and the compound of the formula I-1 was administered orally to one of the groups for 14 days at a dose of 200 mg/kg BW/day. After 14 days of treatment the concentration of glucose was determined in blood from fed animals, i.e., animals which were not restricted from food. After a period of 10 days of treatment an oral glucose tolerance test (OGTT) was performed. For the OGTT mice were fasted overnight and then a 1-g glucose/kg BW solution was orally administered. Blood samples were taken before and 15, 30, 45, 60, 90, 120, 150, 180 min after the glucose challenge for determination of blood glucose levels and then the area under the curve (AUC) was determined. Blood glucose was measured by a glucose analyzer (Glucotrend Premium, Roche Diagnostics, Rotkreuz, Switzerland). The glucose and the free fatty acid (FFA) levels of fed animals (see above) were lowered after 14 days of treatment with the compound of the formula I-1. After 10 days of treatment with the compound of the formula I-1 the glucose levels of fasted animals, i.e., animals with an overnight fasting (see above) were decreased as compared to the untreated control group.

[3] = compound 1 × 10^−5 M + insulin 1 × 10^−7 M
[4] = after 14 days of treatment, 200 mg/kg BW/day orally

Compound: COc1ccc(C(=O)/C=C/c2c(CCN(C)C(C)=O)cc3c(c2OC)OCO3)cc1 [I-1]
- Differentiation of the cells into adipocytes (result in words) (C3H10T1/2 cells [1]): higher differentiation of the cells into adipocytes than insulin alone
- Mean OD ± SEM (oil Red O, 540 nm) (C3H10T1/2 cells [1]; [3]): 0.69 ± 0.019
- Basal glucose uptake (C3H10T1/2 cells [2]; 1 × 10^−5 M): 94.58 ± 0.95 % of control
- Basal glucose uptake (C3H10T1/2 cells [2]; 1 × 10^−6 M): 97.6 ± 22.9 % of control
- Basal glucose uptake (C3H10T1/2 cells [2]; 2.4 × 10^−5 M): 128.6 ± 0.89 % of control
- Basal glucose uptake (C3H10T1/2 cells [2]; 5 × 10^−4 M): 194.058 ± 0.05 % of control
- Basal glucose uptake (result in words) (C3H10T1/2 cells [2]): increased
- glucose AUC of an OGTT (result in words) (C57BLKS/J db/db mice; 1 g glucose/kg body weight, day 10): significantly reduced
- Glucose AUC (C57BLKS/J db/db mice; OGTT (1 g glucose/kg BW) on day 10, 0-180 min, 200 mg/kg BW/day orally, control 69673): 54295
- glucose levels of fasted animals (result in words) (C57BLKS/J db/db mice; after 10 days of treatment, compared to the untreated control group): decreased
- free fatty acid (FFA) levels of fed animals (result in words) (C57BLKS/J db/db mice; [4]): lowered
- glucose levels of fed animals (result in words) (C57BLKS/J db/db mice; [4]): lowered
- blood glucose levels during the OGTT (result in words) (C57BLKS/J db/db mice; compared with the control group, 15-180 min after glucose challenge): lower at all time points
- Blood Glucose Fasted (C57BLKS/J db/db mice; db/db mice, 200 mg/kg BW/day orally, after 10 days, overnight fasting, control 175): 135 mg/dL
- FFA (C57BLKS/J db/db mice; db/db mice, 200 mg/kg BW/day orally, after 14 days, fed animals, control 15.95): 12.38 mg/dL
- Blood Glucose Fed (C57BLKS/J db/db mice; db/db mice, 200 mg/kg BW/day orally, after 14 days, fed animals, control 859): 771 mg/dL

Compound: COc1ccc(C(=O)/C=C/c2cccc(OC(=O)/C=C/c3ccccc3)c2)cc1 [I-2]
- Differentiation of the cells into adipocytes (result in words) (C3H10T1/2 cells [1]): higher differentiation of the cells into adipocytes than insulin alone
- Mean OD ± SEM (oil Red O, 540 nm) (C3H10T1/2 cells [1]; [3]): 0.45 ± 0.037

Compound: Insulin: insulin alone, negative control of the adipocyte differentiation test
- Mean OD ± SEM (oil Red O, 540 nm) (C3H10T1/2 cells [1]; insulin 1 × 10^−7 M alone (negative control)): 0.28 ± 0.03

Compound: COc1ccc(/C=C/C(=O)c2ccc(OC(=O)c3ccccc3)cc2)cc1OC [I-3]
- Differentiation of the cells into adipocytes (result in words) (C3H10T1/2 cells [1]): higher differentiation of the cells into adipocytes than insulin alone
- Mean OD ± SEM (oil Red O, 540 nm) (C3H10T1/2 cells [1]; [3]): 0.53 ± 0.025
- Mean OD ± SEM (oil Red O, 540 nm) (C3H10T1/2 cells [1]; compound 2 × 10^−4 M + insulin 1 × 10^−7 M): 0.34 ± 0.087
- Mean OD ± SEM (oil Red O, 540 nm) (C3H10T1/2 cells [1]; compound 5 × 10^−5 M + insulin 1 × 10^−7 M): 0.53 ± 0.017
- Basal glucose uptake (C3H10T1/2 cells [2]; 1 × 10^−5 M): 133.28 ± 23.4 % of control
- Basal glucose uptake (C3H10T1/2 cells [2]; 1 × 10^−6 M): 105.37 ± 2.21 % of control
- Basal glucose uptake (C3H10T1/2 cells [2]; 2 × 10^−4 M): 142.84 ± 18.05 % of control
- Basal glucose uptake (C3H10T1/2 cells [2]; 5 × 10^−5 M): 116.17 ± 15.96 % of control
- Basal glucose uptake (result in words) (C3H10T1/2 cells [2]): increase

Compound: CC1(COc2ccc(CC3SC(=O)NC3=O)cc2)CCCCC1 (centres unmarked) [Ciglitazone, ciglitazone, reference compound]
- Basal glucose uptake (C3H10T1/2 cells [2]; 5 × 10^−5 M): 496.178 ± 61.86 % of control
